# Paper PMC4678576, “Optimisation of a triazolopyridine based histone demethylase inhibitor yields a potent and selective KDM2A (FBXL11) inhibitor” (MedChemComm, 2014)
# Test: Parallel artificial membrane permeation assay (PAMPA)
# Assay type: in vitro ADME
# Settings: for Papp: PAMPA, range over pH 7.4, 6.2, 5.0, read-out: membrane permeability (PAMPA), range over the pH values tested
Structure (SMILES),Papp,PAMPA Pe pH 5.0,PAMPA Pe pH 6.2,PAMPA Pe pH 7.4
O=C(O)c1ccnc(-c2cn([C@@H]3CCCN(C(=O)c4ccccc4)C3)nn2)c1 [Compound 35],0.41 to 1.9 ×10⁻⁶ cm/s,1.9 10^−6 cm s^−1,0.41 10^−6 cm s^−1,0.69 10^−6 cm s^−1
COC(=O)c1ccnc(-c2cn([C@@H]3CCCN(C(=O)c4ccccc4)C3)nn2)c1 [Compound 37],45 to 56 ×10⁻⁶ cm/s,56 10^−6 cm s^−1,45 10^−6 cm s^−1,52 10^−6 cm s^−1
